This is an account of results in patent publication US20090023186A1, “USE OF VALPROIC ACID FOR ENHANCING PRODUCTION OF RECOMBINANT PROTEINS IN MAMMALIAN CELLS” (EXCELLGENE SA, priority 2007, published 2009).

In experiment [1] the test system is HEK293E cells. Nature of the experiment: Combination with IDMTs, IgG batch yield by ELISA (Example 6). It counts as cell-based, Human. As to conditions: no addition = 100%, day 5. On the procedure:
10 million suspension-adapted HEK293E cells were resuspended in 0.5 ml of Ex-Cell 293 HEK 293 serum-free medium with 4 mmol/l L-glutamine (Cat. No. 14571C-[…]; Lot No. 6A0093; SAFC Biosciences, Lenexa, Kans., USA, “Ex-Cell” medium; note: “Ex-Cell” medium-as used herein-refers to a medium comprising 4 mmol/l L-glutamine) in a 50-ml filter tube each (TPP AG, Trasadingen, Switzerland; Cat. No. 87050, Lot 20050174). In a separate set, 10 million suspension-adapted CHO DG44 cells were resuspended in 0.5 ml of ProCHO5 serum-free medium with 4 mmol/[…] hypoxanthine and 0.194 g/l thymidine (BioWhittaker (Lonza), Belgium; Cat. No. BE12-[…]; Lot No. 7MB0040; “ProCHO5” medium; note: “ProCHO5” medium-as used herein-refers to a medium comprising 4 mmol/[…] hypoxanthine and 0.194 g/l thymidine) in a 50-ml filter tube each (TPP AG, Trasadingen, Switzerland; Cat. No. 87050, Lot 20050174). Then 12.5 μg plasmid DNA at a concentration of 1 μg/μl was added in each tube with the following composition 50% (6.25 μg) p-LC (SEQ ID NO: 1) 50% (6.25 μg) p-HC (SEQ ID NO: 3). Plasmid p-LC comprises the genetic information for the production of the light chain of an IgG antibody, plasmid p-HC comprises the genetic information for the production of the heavy chain of an IgG antibody. The particular vector constructs used in the present invention can also be obtained from the inventors. The inventors can be contacted via e-mail at […]. […] In short, Goat anti-human kappa light chain IgG (Biosource) was used for coating the ELISA-plates, and with AP-conjugated goat anti-human gamma chain IgG (Biosource) the synthesized IgG1 was detected. […] Absorption was measured at 405 nm against 490 nm using a microplate reader (SPECTRAmaxTM340; Molecular Devices, Palo Alto, Calif., USA).
(In general: In an ELISA, binding on a coated surface is turned into a signal by an enzyme label.)

In experiment [2] the test system is CHO DG44 cells. Described as above. It counts as cell-based, Chinese Hamster. As to conditions: day 5; for Fold increase in batch yield over control: no addition = 100%; for interaction with VPA in increasing batch yield: CHO cells. As for the experimental part: 10 million suspension-adapted HEK293E cells were resuspended in 0.5 ml of Ex-Cell 293 HEK 293 serum-free medium with 4 mmol/l L-glutamine (Cat. No. 14571C-[…]; Lot No. 6A0093; SAFC Biosciences, Lenexa, Kans., USA, “Ex-Cell” medium; note: “Ex-Cell” medium-as used herein-refers to a medium comprising 4 mmol/l L-glutamine) in a 50-ml filter tube each (TPP AG, Trasadingen, Switzerland; Cat. No. 87050, Lot 20050174). In a separate set, 10 million suspension-adapted CHO DG44 cells were resuspended in 0.5 ml of ProCHO5 serum-free medium with 4 mmol/[…] hypoxanthine and 0.194 g/l thymidine (BioWhittaker (Lonza), Belgium; Cat. No. BE12-[…]; Lot No. 7MB0040; “ProCHO5” medium; note: “ProCHO5” medium-as used herein-refers to a medium comprising 4 mmol/[…] hypoxanthine and 0.194 g/l thymidine) in a 50-ml filter tube each (TPP AG, Trasadingen, Switzerland; Cat. No. 87050, Lot 20050174). Then 12.5 μg plasmid DNA at a concentration of 1 μg/μl was added in each tube with the following composition 50% (6.25 μg) p-LC (SEQ ID NO: 1) 50% (6.25 μg) p-HC (SEQ ID NO: 3). Plasmid p-LC comprises the genetic information for the production of the light chain of an IgG antibody, plasmid p-HC comprises the genetic information for the production of the heavy chain of an IgG antibody. The particular vector constructs used in the present invention can also be obtained from the inventors. The inventors can be contacted via e-mail at […]. Moreover, commercial services do exist that produce any desired nucleotide sequence even comprising several kilobase pairs including complete expression cassettes in plasmid backgrounds (e.g., Invitrogen, Carlsbad, USA; Geneart, Germany.) Thus, providing the genetic sequence information of the plasmids should enable one of ordinary skill in the art to order the plasmids of the present invention at one of the commercial services listed. After shortly mixing the DNA with the cells by gentle shaking, 25 μg of 25-kd linear polyethyleneimine (“PEI”; Polysciences, Eppelheim, Germany; [2]) were added at a concentration of 1 μg/μl to each of the tubes. After shortly mixing by gentle shaking, the filter tubes containing the cells together with the DNA and PEI were transferred into an orbital shaker (Kühner Shaker Cabinet ISF-4-W, “Kühner shaker”, Kühner AG, Birsfelden, Switzerland), and the cells were incubated for 4 hours at 37° C. in a 5% CO2 atmosphere under shaking at 180 rpm. After that time, 4.5 ml of Ex-Cell medium were added to each of the filter tubes containing HEK 293 cells and 4.5 ml of Pro-CHO5 were added to each of the filter tubes containing CHO DG44 cells. Then, valproic acid was added to each of the tubes at the corresponding final concentration. In addition, the following chemicals were added to the corresponding tubes at a final concentration of: […] Azacytidine was purchased from Sigma-Aldrich Chemie GmbH, Industriestrasse 25, CH-9471 Buchs SG, Catalog Number A1287-1 VL. RG108 was purchased from Sigma-Aldrich Chemie GmbH, Industriestrasse 25, CH-9471 Buchs SG, Catalog Number R8279-10MG. The cells then were returned into the Kuhner shaker and incubated at 37° C. in a 5% CO2 atmosphere under shaking at 180 rpm. […] In short, Goat anti-human kappa light chain IgG (Biosource) was used for coating the ELISA-plates, and with AP-conjugated goat anti-human gamma chain IgG (Biosource) the synthesized IgG1 was detected. […] Absorption was measured at 405 nm against 490 nm using a microplate reader (SPECTRAmaxTM340; Molecular Devices, Palo Alto, Calif., USA).

Experiment [3] concerns CHO DG44 cells. The experiment is described as follows: Influence of temperature on IgG batch titer and comparison with sodium butyrate (Example 2). It counts as cell-based, Chinese Hamster. Conditions: 3 mmol/l sodium butyrate; relative to control = 1; day 5 after transfection. On the procedure: (§1) No. 14571C-[…]; Lot No. 6A0093; SAFC Biosciences, Lenexa, Kans., USA, “Ex-Cell” medium; note: “Ex-Cell” medium-as used herein-refers to a medium comprising 4 mmol/l L-glutamine) in a 50-ml filter tube each (TPP AG, Trasadingen, Switzerland; Cat. No. 87050, Lot 20050174). In a separate set, 10 million suspension-adapted CHO DG44 cells were resuspended in 0.5 ml of ProCHO5 serum-free medium with 4 mmol/[…] hypoxanthine and 0.194 g/l thymidine (BioWhittaker (Lonza), Belgium; Cat. No. BE12-[…]; Lot No. 7 MB0040; “ProCHO5” medium; note: “ProCHO5” medium-as used herein-refers to a medium comprising 4 mmol/[…] hypoxanthine and 0.194 g/l thymidine) in a 50-ml filter tube each (TPP AG, Trasadingen, Switzerland; Cat. No. 87050, Lot 20050174). Then 12.5 μg plasmid DNA at a concentration of 1 μg/μl was added in each tube with the following composition 50% (6.25 μg) p-LC (SEQ ID NO: 1) 50% (6.25 μg) p-HC (SEQ ID NO: 3). Plasmid p-LC comprises the genetic information for the production of the light chain of an IgG antibody, plasmid p-HC comprises the genetic information for the production of the heavy chain of an IgG antibody. The particular vector constructs used in the present invention can also be obtained from the inventors. The inventors can be contacted via e-mail at […]. Moreover, commercial services do exist that produce any desired nucleotide sequence even comprising several kilobase pairs including complete expression cassettes in plasmid backgrounds (e.g., Invitrogen, Carlsbad, USA; Geneart, Germany.) Thus, providing the genetic sequence information of the plasmids should enable one of ordinary skill in the art to order the plasmids of the present invention at one of the commercial services listed. After shortly mixing the DNA with the cells by gentle shaking, 25 μg of 25-kd linear polyethyleneimine (“PEI”; Polysciences, Eppelheim, Germany; [2]) were added at a concentration of 1 μg/μl to each of the tubes. After shortly mixing by gentle shaking, the filter tubes containing the cells together with the DNA and PEI were transferred into an orbital shaker (Kühner Shaker Cabinet ISF-4-W, “Kühner shaker”, Kühner AG, Birsfelden, Switzerland), and the cells were incubated for 4 hours at 37° C. in a 5% CO2 atmosphere under shaking at 180 rpm. After that time, 4.5 ml of Ex-Cell medium were added to each of the filter tubes containing HEK 293 cells and 4.5 ml of Pro-CHO5 were added to each of the filter tubes containing CHO DG44 cells. […] No. […] Sigma-Aldrich Chemie GmbH, Industriestrasse 25, CH-9471 Buchs SG) was added to the corresponding tubes at the corresponding final concentrations. The cells then were returned into the Kühner shaker. Half the tubes were incubated at 37° C. in a 5% CO2 atmosphere under shaking at 180 rpm, the other half was incubated at 31° C. […] The ELISA was performed as published in prior art. In short, Goat anti-human kappa light chain IgG (Biosource) was used for coating the ELISA-plates, and with AP-conjugated goat anti-human gamma chain IgG (Biosource) the synthesized IgG1 was detected. NPP was used as a substrate for the alkaline phosphatase. Absorption was measured at 405 nm against 490 nm using a microplate reader (SPECTRAmaxTM340; Molecular Devices, Palo Alto, Calif., USA).

Experiment [4] has as its system HEK293E cells. Described as above. Type of experiment: cell-based, Human. As to conditions: 3 mmol/l sodium butyrate; relative to control = 1; day 5 after transfection. As for the experimental part: as §1
Experiment [5] relates to HEK293E cells. Nature of the experiment: Preferred embodiment: transient IgG expression with p18 and p21 co-transfection, batch titer by ELISA. It counts as cell-based, Human. On the procedure: 20 million suspension-adapted HEK293E cells were resuspended in 1 ml of Ex-Cell 293 HEK 293 serum-free medium with 4 mmol/l L-glutamine (Cat. No. 14571C-[…]; Lot No. 6A0093; SAFC Biosciences, Lenexa, Kans., USA, “Ex-Cell” medium; note: “Ex-Cell” medium-as used herein-refers to a medium comprising 4 mmol/l L-glutamine) in a 50-ml filter tube each (TPP AG, Trasadingen, Switzerland; Cat. No. 87050, Lot 20050174). Then 50 μg plasmid DNA at a concentration of 1 μg/μl was added in each tube with the following composition […] Plasmid p-LC comprises the genetic information for the production of the light chain of an IgG antibody, plasmid p-HC comprises the genetic information for the production of the heavy chain of an IgG antibody, plasmid p-p18 comprises the genetic information for the protein p18, and plasmid p-p21 comprises the genetic information for the protein p21. The particular vector constructs used in the present invention can also be obtained from the inventors. The inventors can be contacted via e-mail at […]. Moreover, commercial services do exist that produce any desired nucleotide sequence even comprising several kilobase pairs including complete expression cassettes in plasmid backgrounds (e.g., Invitrogen, Carlsbad, USA; Geneart, Germany.) Thus, providing the genetic sequence information of the plasmids should enable one of ordinary skill in the art to order the plasmids of the present invention at one of the commercial services listed. After shortly mixing the DNA with the cells by gentle shaking, 100 μg of 25-kd linear polyethyleneimine (“PEI”; Polysciences, Eppelheim, Germany; [2]) were added at a concentration of 1 μg/μl to each of the tubes. After shortly mixing by gentle shaking, the filter tubes containing the cells together with the DNA and PEI were transferred into an orbital shaker (Kühner Shaker Cabinet ISF-4-W, “Kühner shaker”, Kühner AG, Birsfelden, Switzerland), and the cells were incubated for 3 hours at 37° C. in a 5% CO2 atmosphere under shaking at 180 rpm. After that time, 4 ml of Ex-Cell medium were added to each of the filter tubes. […] No. B5887-1G; Sigma-Aldrich Chemie GmbH, Industriestrasse 25, CH-9471 Buchs SG) was added to the corresponding tubes at the corresponding final concentrations. […] The ELISA was performed as published in prior art. In short, Goat anti-human kappa light chain IgG (Biosource) was used for coating the ELISA-plates, and with AP-conjugated goat anti-human gamma chain IgG (Biosource) the synthesized IgG1 was detected. NPP was used as a substrate for the alkaline phosphatase. Absorption was measured at 405 nm against 490 nm using a microplate reader (SPECTRAmaxTM340; Molecular Devices, Palo Alto, Calif., USA).

Consider `Nc1ncn([C@@H]2O[C@H](CO)[C@@H](O)[C@H]2O)c(=O)n1` [Azacytidine], for which the “Fold increase in batch yield over control” value is recorded as 160% ± 15% with HEK293E cells [1] (Azacytidine 6 μmol/l) and 160% ± 10% in the experiment on CHO DG44 cells [2] (Azacytidine 4 μmol/l). Further, the “interaction with VPA in increasing batch yield” value with CHO DG44 cells [2] was “act synergistically together with VPA”.
Consider `O=C(O)C(Cc1c[nH]c2ccccc12)N1C(=O)c2ccccc2C1=O` (stereo not shown) [RG108], for which the “Fold increase in batch yield over control” value with HEK293E cells [1] (RG108 8 μmol/l) is 150% ± 20%; in the experiment with CHO DG44 cells [2] (RG108 60 μmol/l), 170% ± 15%. Also, in the experiment on CHO DG44 cells [2], the “interaction with VPA in increasing batch yield” value was “act synergistically together with VPA”.
For `CCCC(=O)[O-].[Na+]` [sodium butyrate], in the experiment with CHO DG44 cells [3], the “Batch titer increase at 31° C.” value amounted to 1.3 ± 0.1 and the “Batch titer increase at 37° C.” value turned out to be 1.9 ± 0.1. Further, in the experiment on HEK293E cells [4], the “Batch titer increase at 31° C.” value worked out at 4.8 ± 0.4 and the “Batch titer increase at 37° C.” value is 4.8 ± 0.4. In addition, in the experiment on HEK293E cells [5] (3 mmol/l sodium butyrate, IgG with p18 and p21, day 14 after transfection), the Batch titer stood at 528 ± 42 mg/L. Moreover, the “Fold increase over control” value with HEK293E cells [5] (3 mmol/l sodium butyrate, day 14 after transfection) amounted to 7.2 fold. In addition, the optimal concentration in the experiment on HEK293E cells [5] (in combination with HEK293E cells) amounted to 3 mmol/L.
